Calls of active or inactive are those of the source. No cut-off for these calls is given here.
Key:
[1] = test system: Achaea janata; test: Antifeedant activity against fourth instar larvae of Achaea janata L. on Riclmus cammunls leaves assessed as number of leaf discs consumed in 24 hrs at 200 ppm at 26 +/- 1 degC; format: functional
[2] = test system: Aspergillus niger; test: Antifungal activity against Aspergillus niger assessed as inhibition zone at 50 ug/ml measured after 72 hrs by drug dilution method; format: functional, organism-based
[3] = test system: Penicillium; test: Antifungal activity against Penicillium assessed as inhibition zone at 50 ug/ml measured after 72 hrs by drug dilution method; format: functional, organism-based
[4] = test system: Candida albicans; test: Antifungal activity against Candida albicans assessed as inhibition zone at 250 ug/ml measured after 72 hrs by disk diffusion method; format: functional, organism-based
[5] = test system: Enterococcus faecalis; test: Antibacterial activity against Enterococcus faecalis assessed as inhibition zone at 250 ug/ml measured after 24 to 45 hrs by disk diffusion method; format: functional
[6] = test system: Proteus vulgaris; test: Antibacterial activity against Proteus vulgaris assessed as inhibition zone at 250 ug/ml measured after 24 to 45 hrs by disk diffusion method; format: functional
[7] = test system: Klebsiella; test: Antibacterial activity against Klebsiella species assessed as inhibition zone at 250 ug/ml measured after 24 to 45 hrs by disk diffusion method; format: functional
[8] = test system: Pseudomonas; test: Antibacterial activity against Pseudomonas assessed as inhibition zone at 250 ug/ml measured after 24 to 45 hrs by disk diffusion method; format: functional
[9] = test system: Staphylococcus aureus; test: Antibacterial activity against Staphylococcus aureus assessed as inhibition zone at 250 ug/ml measured after 24 to 45 hrs by disk diffusion method; format: functional
[10] = test system: Escherichia coli; test: Antibacterial activity against Escherichia coli assessed as inhibition zone at 250 ug/ml measured after 24 to 45 hrs by disk diffusion method; format: functional
[11] = test system: Achaea janata; test: Antifeedant activity against fourth instar larvae of Achaea janata L. on Riclmus cammunls leaves assessed as number of leaf discs consumed in 24 hrs at 150 ppm at 26 +/- 1 degC; format: functional
[12] = test system: Achaea janata; test: Antifeedant activity against fourth instar larvae of Achaea janata L. on Riclmus cammunls leaves assessed as number of leaf discs consumed in 24 hrs at 100 ppm at 26 +/- 1 degC; format: functional
[13] = test system: Achaea janata; test: Antifeedant activity against fourth instar larvae of Achaea janata L. on Riclmus cammunls leaves assessed as number of leaf discs consumed in 24 hrs at 50 ppm at 26 +/- 1 degC; format: functional

| Compound | Activity [1] | Activity [2] | Activity [3] | Activity [4] | Activity [5] | Activity [6] [mm] | Activity [7] [mm] | Activity [8] [mm] | Activity [9] [mm] | Activity [10] [mm] | inhibition [3] | inhibition [4] | inhibition [2] | Activity [11] | Activity [12] | Activity [13] |
| --- | --- | --- | --- | --- | --- | --- | --- | --- | --- | --- | --- | --- | --- | --- | --- | --- |
| O=C(/C=C/c1ccccc1[N+](=O)[O-])c1ccc(F)cc1 | 12 | inactive | inactive | inactive | inactive | 13 | 13 | 13 | 13 | 13 |  |  |  |  |  |  |
| O=C(/C=C/c1cccc([N+](=O)[O-])c1)c1ccc(F)cc1 | 10 | inactive | inactive | inactive | inactive | 13 | 13 | 13 | 13 | 13 |  |  |  |  |  |  |
| O=C(/C=C/c1cccc(Cl)c1)c1ccc(F)cc1 | 0.4 |  |  | inactive | inactive | 13 | 13 | 13 | 13 | 13 |  |  |  |  |  |  |
| COc1ccc(/C=C/C(=O)c2ccc(F)cc2)cc1 | 9 |  |  |  | 20 mm | 13 | 13 | 13 | 13 | 13 | Active | Active |  |  |  |  |
| O=C(/C=C/c1ccc(Br)cc1)c1ccc(F)cc1 | 0.5 |  |  |  | 20 mm | 13 | 20 | 13 | 20 | 20 | Active | Active | Active |  |  |  |
| CN(C)c1ccc(/C=C/C(=O)c2ccc(F)cc2)cc1 | 9 |  |  |  | inactive | 13 | 13 | 20 | 20 | 20 | Active |  | Active |  |  |  |
| O=C(/C=C/c1ccccc1)c1ccc(F)cc1 | 8 | inactive | inactive | inactive | inactive | 8 | 8 | 8 | 13 | 8 |  |  |  |  |  |  |
| Cc1ccc(/C=C/C(=O)c2ccc(F)cc2)cc1 | 9 | inactive |  |  | inactive | 8 | 8 | 8 | 13 | 8 |  |  |  |  |  |  |
| O=C(/C=C/c1ccc(Cl)cc1)c1ccc(F)cc1 | 0.1 | inactive | inactive |  | inactive | 13 | 13 | 13 | 13 | 13 |  |  |  | 0 | 0.05 | 0.1 |

— ChEMBL document CHEMBL3045089, “Synthesis, spectral studies, antimicrobial and insect antifeedant activities of some substituted styryl 4-fluorophenyl ketones” (2011)
